According to US6303596A, “Use of taurolidine for treatment of leukemias” (priority 2000, dated 2001):

What was measured:
REH = experiment: growth rate after taurolidine treatment, REH; type: cell-based; details: Homo sapiens, 72 h, growth over three days, read-out: growth rate (% of control)
Method: (§1) FIGS. 8A and 8B depict cell viability and growth rates for REH cell line following taurolidine treatment, in terms of % trypan blue negative cells and % cell number, respectively. Cells were treated with various concentrations of taurolidine for 4 hours in AIM-V+0.01% BCS. After aliquots were collected for LDH assay, the remainder of the culture was rinsed in HBSS and resuspended in RPMI+10% BCS without taurolidine. Counts of trypan blue-negative cells (FIG. 8A), and total cell number (FIG. 8B), were recorded daily thereafter (with the measurement at Day 1 being made immediately after the 4 hour taurolidine treatment). […] Doubling times were determined under each condition, and expressed as a percentage of the rate of doubling of untreated cells. […]
(§2) In these experiments, integrity of cell membranes following taurolidine treatment was assessed by exclusion of trypan blue and by measuring the release of LDH in MM6, K-562, HL-60, and REH cells. […] A parallel aliquot of cells was lysed by three cycles of freeze/thaw and the quantity of LDH released was taken to be 100%. […]
(§3) HL-60 cells treated with 50 μl taurolidine. In these samples, LDH present in the culture medium was 8.3±2.3% of that released by completely lysed cells, compared with 2.3±0.8% measured in control cultures. […]
^b Growth rate was measured over three days following treatment.

[1] = test system: ECV304 (endothelial cells); experiment: growth rate (proliferation) after taurolidine treatment, ECV304; type: cell-based, human; details: ECV304, 50 and 100 μg/ml taurolidine
Method: FIGS. 10A and 10B depict cell viability and growth rates for ECV304 cell line following taurolidine treatment, in terms of % trypan blue negative cells and % cell number, respectively. Cells were treated with various concentrations of taurolidine for 4 hours in AIM-V+0.01% BCS. After aliquots were collected for LDH assay, the remainder of the culture was rinsed in HBSS and resuspended in RPMI+10% BCS without taurolidine. Counts of trypan blue-negative cells (FIG. 10A), and total cell number (FIG. 10B), were recorded daily thereafter (with the measurement at Day 1 being made immediately after the 4 hour taurolidine treatment). Conditions were: no treatment (open circles); 25 μg/ml taurolidine (closed circles); 50 μg/ml taurolidine (open squares); 100 μg/ml taurolidine (closed squares); and vehicle alone (closed triangles). Doubling times were determined under each condition, and expressed as a percentage of the rate of doubling of untreated cells. These values are located to the right of the growth curves in (FIG. 10B). […]
HL-60 cells treated with 50 μl taurolidine. In these samples, LDH present in the culture medium was 8.3±2.3% of that released by completely lysed cells, compared with 2.3±0.8% measured in control cultures. […] After 4 hour treatment, cells were rinsed and returned to growth medium and monitored for viability and growth over the following 3 days. […]

K562 cells = experiment: trypan blue exclusion, K562; type: cell-based, human; details: K562, 25 μg/ml taurolidine
Method: as §1, with “6A” for “8A”, “6B” for “8B”, “K562” for “REH”, “6A),” for “8A),”, “6B),” for “8B),”
as §2, §3

all cells tested = experiment: apoptogenic efficiency in all cells tested; type: cell-based, human
Method: In another study, TUNEL assays were performed on all cell lines 6 hours after cells were initially exposed to taurolidine (cells were treated for 4 hours, rinsed, and then incubated for 2 more hours before TUNEL assay was performed).
. Taurolidine and anisomycin induced apoptosis in MM6, HL-60, and Jurkat cells (Table VIII). MM6 and HL-60 cells were similarly effected, with >80% TUNEL-positive cells after 6 hours. Jurkat cells were less sensitive, with approximately 50% of cells induced to undergo apoptosis after taurolidine treatment. After 6 hours, 73% of anisomycin-treated REH cells were apoptotic, with less than 20% of taurolidine-treated REH cells being TUNEL-positive. However, assay of cells 24 hours after […]

In the case of `O=S1(=O)CCN(CN2CCS(=O)(=O)NC2)CN1` [taurolidine, 4,4'-methylenebis(perhydro-1,2,4-thiadiazin 1,1-dioxide)], the activity at 50 µg/mL (REH; 50 μg/ml for 4 h) is reported as 1%, the activity at 100 µg/mL (REH; 100 μg/ml for 4 h) is reported as 18% and the proliferation after treatment [1] is reported as “inhibited proliferation”. The “trypan blue staining after treatment” value (K562 cells) was “did not show an increase in trypan blue staining” and the “apoptogenic efficiency versus anisomycin” value (all cells tested) was “as efficient an apoptogenic agent as the protein synthesis inhibitor anisomycin”.
